Earlier results, collected in US20150164812A1, “Porous Tablets As Carriers For Liquid Formulations” (Veloxis Pharmaceuticals A/S, priority 2004, published 2015).
Where a name gives a salt, the structure may show the parent alone. Read-outs that look alike come from different tables or passages of the source.

Columns and labels:
[1] = not given; remark: listed apart in the source
[2] = Table 1 Poorly-Soluble Drug Candidates
[3] = Table 2 Poorly-Soluble Drugs with Low Bioavailability

Compound | Solubility In Water [2] | Solubility In Water [3] | further results
Cc1nnc2n1-c1ccc(Cl)cc1C(c1ccccc1)=NC2 [Alprazolam] | Insoluble |  | 
COc1ccc(CCN2CCC(Nc3nc4ccccc4n3Cc3ccc(F)cc3)CC2)cc1 [Astemizole] | Insoluble | Insoluble | Bioavailability ([1]; in words): Low-moderate
CC(=O)OC[C@H]1O[C@@H]([S-])[C@H](OC(C)=O)[C@@H](OC(C)=O)[C@@H]1OC(C)=O.CCP(CC)CC.[Au+] [Auranofin] |  | Slightly soluble | Bioavailability ([1]; in vivo): Low (15-25%)
CN1CCCC(n2nc(Cc3ccc(Cl)cc3)c3ccccc3c2=O)CC1 (stereo not drawn) [Azelastine] | Insoluble |  | 
OC(CCN1CCCCC1)(c1ccccc1)C1CC2C=CC1C2 (stereo not drawn) [Biperiden] |  | Sparingly soluble | 
C=CCC1(CC(C)C)C(=O)NC(=O)NC1=O [Butalbital] | Insoluble |  | 
NC(=O)N1c2ccccc2C=Cc2ccccc21 [Carbamazepine] | Insoluble |  | 
C[C@@](Cc1ccc(O)c(O)c1)(NN)C(=O)O [Carbidopa] | Slightly |  | 
CO/N=C(\C(=O)N[C@@H]1C(=O)N2C(C(=O)O)=C(COC(C)=O)CS[C@H]12)c1csc(N)n1 [Cefotaxime] | Sparingly |  | 
CN1CCC[C@@H]1CCO[C@](C)(c1ccccc1)c1ccc(Cl)cc1 [Clemastine fumarate] |  | Slightly soluble | 
CN1CCN(C2=Nc3cc(Cl)ccc3Nc3ccccc32)CC1 [Clozapine] | Slightly |  | 
CC1CC(OC(=O)C(O)c2ccccc2)CC(C)(C)C1 (stereo not drawn) [Cyclandelate] |  | Insoluble | Bioavailability ([1]; in words): Low
C#C[C@]1(O)CC[C@H]2[C@@H]3CCC4=Cc5oncc5C[C@]4(C)[C@H]3CC[C@@]21C [Danazol] |  |  | Bioavailability ([1]; in words): Low
OCCN(CCO)c1nc(N2CCCCC2)c2nc(N(CCO)CCO)nc(N3CCCCC3)c2n1 [Dipyridamole] | Slightly |  | 
CC(CCc1ccc(O)cc1)NCCc1ccc(O)c(O)c1 (stereo not drawn) [Dobutamine] | Sparingly |  | 
COc1cc2nc(N3CCN(C(=O)C4COc5ccccc5O4)CC3)nc(N)c2cc1OC (stereo not drawn) [Doxazosin] | Slightly |  | 
CCCCCc1cc(O)c2c(c1)OC(C)(C)[C@@H]1CCC(C)=C[C@@H]21 [Dronabinol] |  | Insoluble | 
CCOC(=O)[C@H](CCc1ccccc1)N[C@@H](C)C(=O)N1CCC[C@H]1C(=O)O [Enalapril] | Sparingly |  | 
CCc1cccc2c3c([nH]c12)C(CC)(CC(=O)O)OCC3 (stereo not drawn) [Etodolac] | Insoluble |  | 
COc1cc([C@@H]2c3cc4c(cc3[C@@H](O[C@@H]3O[C@@H]5CO[C@@H](C)O[C@H]5[C@H](O)[C@H]3O)[C@H]3COC(=O)[C@H]23)OCO4)cc(OC)c1O [Etoposide] | Very Slightly |  | 
NC(N)=Nc1nc(CSCCC(N)=NS(N)(=O)=O)cs1 [Famotidine] | Slightly | Slightly soluble | 
CCOC(=O)C1=C(C)NC(C)=C(C(=O)OC)C1c1cccc(Cl)c1Cl (stereo not drawn) [Felodipine] | Insoluble | Insoluble | 
CC(C)(C)NC(=O)[C@H]1CC[C@H]2[C@@H]3CC[C@H]4NC(=O)C=C[C@]4(C)[C@H]3CC[C@]12C [Finasteride] | Insoluble |  | 
OC(Cn1cncn1)(Cn1cncn1)c1ccc(F)cc1F [Fluconazole] | Slightly |  | 
OCCN1CCN(CCCN2c3ccccc3Sc3ccc(C(F)(F)F)cc32)CC1 [Fluphenazine] |  | Insoluble | 

Compound | Solubility In Water [2] | Solubility In Water [3] | further results
CC(C(=O)O)c1ccc(-c2ccccc2)c(F)c1 (stereo not drawn) [Flurbiprofen] | Slightly |  | 
COCCCC/C(=N\OCCN)c1ccc(C(F)(F)F)cc1 [Fluvoxamine] | Sparingly |  | 
CC(C)Cc1ccc(C(C)C(=O)O)cc1 (stereo not drawn) [Ibuprofen] | Insoluble |  | 
O=[N+]([O-])O[C@H]1CO[C@H]2[C@@H]1OC[C@H]2O[N+](=O)[O-] [Isosorbide dinitrate] | Sparingly | Sparingly soluble | 
CC1=C(/C=C/C(C)=C/C=C/C(C)=C\C(=O)O)C(C)(C)CCC1 [Isotretinoin] | Insoluble |  | 
COC(=O)C1=C(C)NC(C)=C(C(=O)OC(C)C)C1c1cccc2nonc12 (stereo not drawn) [Isradipine] | Insoluble | Insoluble | 
CC(=O)N1CCN(c2ccc(OCC3COC(Cn4ccnc4)(c4ccc(Cl)cc4Cl)O3)cc2)CC1 (stereo not drawn) [Ketoconazole] | Insoluble |  | 
Cc1c(OCC(F)(F)F)ccnc1C[S+]([O-])c1nc2ccccc2[nH]1 (stereo not drawn) [Lansoprazole] | Insoluble |  | 
CC[C@H](C)C(=O)O[C@H]1C[C@@H](C)C=C2C=C[C@H](C)[C@H](CC[C@@H]3C[C@@H](O)CC(=O)O3)[C@H]21 [Lovastatin] | Insoluble | Insoluble | 
Cc1cccc(Nc2ccccc2C(=O)O)c1C [Mefenamic acid] | Slightly |  | 
C[C@@H]1C[C@H]2[C@@H]3CCC4=CC(=O)C=C[C@]4(C)[C@@]3(Cl)[C@@H](O)C[C@]2(C)[C@@]1(O)C(=O)CCl [Mometasone] | Insoluble |  | 
COc1ccc2cc(CCC(C)=O)ccc2c1 [Nabumetone] | Insoluble | Insoluble | 
CO[C@]12C[C@@H](COC(=O)c3cncc(Br)c3)CN(C)[C@@H]1Cc1cn(C)c3cccc2c13 [Nicergoline] | Insoluble |  | 
COc1ccc2[nH]c([S+]([O-])Cc3ncc(C)c(OC)c3C)nc2c1 (stereo not drawn) [Omeprazole] | Slightly |  | 
CC(=O)O[C@H]1C(=O)[C@@]2(C)[C@H]([C@H](OC(=O)c3ccccc3)[C@]3(O)C[C@H](OC(=O)[C@H](O)[C@@H](NC(=O)c4ccccc4)c4ccccc4)C(C)=C1C3(C)C)[C@]1(OC(C)=O)CO[C@@H]1C[C@@H]2O [Paclitaxel] | Insoluble |  | 
OCCN1CCN(CCCN2c3ccccc3Sc3ccc(Cl)cc32)CC1 [Perphenazine] |  |  | Bioavailability ([1]; in words): Low
O=C1NC(=O)C(c2ccccc2)(c2ccccc2)N1 [Phenytoin] | Insoluble |  | 
CN1C(C(=O)Nc2ccccn2)=C(O)c2ccccc2S1(=O)=O [Piroxicam] | Sparingly |  | 
CCOC(=O)[C@H](CCc1ccccc1)N[C@@H](C)C(=O)N1Cc2ccccc2C[C@H]1C(=O)O [Quinapril] | Insoluble |  | 
CCOC(=O)[C@H](CCc1ccccc1)N[C@@H](C)C(=O)N1[C@H](C(=O)O)C[C@@H]2CCC[C@@H]21 [Ramipril] | Insoluble |  | 
CN[C@H]1CC[C@@H](c2ccc(Cl)c(Cl)c2)c2ccccc21 [Sertraline] | Slightly | Slightly soluble | 
CC(=O)S[C@@H]1CC2=CC(=O)CC[C@]2(C)[C@H]2CC[C@@]3(C)[C@@H](CC[C@@]34CCC(=O)O4)[C@H]12 [Spironolactone] |  | Insoluble | 
CC(C)(C)c1ccc(C(O)CCCN2CCC(C(O)(c3ccccc3)c3ccccc3)CC2)cc1 (stereo not drawn) [Terfenadine] | Slightly |  | 
C[C@]12CC[C@H]3[C@@H](CCC4=CC(=O)CC[C@@]43C)[C@@H]1CC[C@@H]2O [Testosterone] |  | Insoluble | Bioavailability ([1]; in words): Low
Cc1ccc(-c2nc3ccc(C)cn3c2CC(=O)N(C)C)cc1 [Zolpidem] | Sparingly |  | 
